≈ marks a conversion by molar mass, not a printed value. Where two headings read alike, the source gives them in different places.
What was measured:
[1] = in vitro; details: human
[2] = in vitro; details: human; remark: listed apart in the source
[3] = in vitro; details: human; remark: listed apart in the source
[4] = in vitro; details: human, IC50 cytotoxicity Hep 3B
[5] = in vitro; details: human, IC50 cytotoxicity MCF 7
[6] = in vitro; details: human; remark: listed apart in the source
[7] = MTT cytotoxicity assay, MDA-MB-231; details: human, MDA-MB-231 breast cancer cells
[8] = MTT cytotoxicity assay, MCF 7; details: human, MCF 7 breast cancer cells, IC50 cytotoxicity MCF 7, MTT
[9] = MTT cytotoxicity assay, Hep G2; details: human, Hep G2 liver cancer cells
[10] = MTT cytotoxicity assay, Hep 3B; details: human, Hep 3B liver cancer cells, IC50 cytotoxicity Hep 3B
[11] = MTT cytotoxicity assay, A 549; details: human, A 549 lung cancer cells
[12] = MTT cytotoxicity assay, Ca9-22; details: human, Ca9-22 oral cancer cells
[13] = system: influenza A virus (H1N1); experiment: microbe, parasite or virus in culture; assay type: cell-based; details: for IC50 / IC90: Influenza A virus; for IC50: read-out: IC50, influenza A (H1N1) antiviral activity; for IC90: read-out: IC90, influenza A (H1N1) antiviral activity
[14] = system: Hep 3B liver cancer cell line
[15] = system: MDA-MB-231 breast cancer cell line
[16] = system: Hep G2 liver cancer cell line
[17] = system: A 549 lung cancer cell line
[18] = system: MCF 7 breast cancer cell line
[19] = system: Ca9-22 oral cancer cell line
[20] = system: Ca9-22 oral cancer cell line; experiment: MTT cytotoxicity assay, Ca9-22; details: MTT, 3 days
[21] = system: MDA-MB-231 breast cancer cell line; experiment: MTT cytotoxicity assay, MDA-MB-231; details: MTT, 3 days
[22] = system: MCF 7 breast cancer cell line; experiment: MTT cytotoxicity assay, MCF 7; details: MTT, 3 days
[23] = system: Hep G2 liver cancer cell line; experiment: MTT cytotoxicity assay, Hep G2; details: MTT, 3 days
[24] = system: Hep 3B liver cancer cell line; experiment: MTT cytotoxicity assay, Hep 3B; details: 3 days
[25] = system: A 549 lung cancer cell line; experiment: MTT cytotoxicity assay, A 549; details: MTT, 3 days
[26] = H1N1, 72 h, MDCK cells, XTT, 3 days, concentration achieving 50% cytoprotection
[27] = H1N1, 72 h, MDCK cells, XTT, 3 days
[28] = MDCK cells, XTT, 3 days, concentration achieving 50% cytoprotection

Molecule: C[C@@H]1C[C@@H](O)[C@]2(C)[C@@H](C)C(=O)CC[C@H]2[C@]1(C)COc1ccc2ccc(=O)oc2c1 (single isomer, unassigned) [Kamolonol, kamolonol]
- IC50 at 3 days [1]: > 20 µg/mL
- IC50 at 3 days [2]: > 20 µg/mL
- IC50 at 3 days [3]: > 20 µg/mL
- IC50 at 3 days [4]: 17.9 µg/mL (≈ 45 µM)
- IC50 at 3 days [5]: > 20 µg/mL
- IC50 at 3 days [6]: > 20 µg/mL

Molecule: C=C1CC[C@]2(C)C(C)(C)[C@@H](OC(C)=O)CC[C@]2(C)[C@H]1COc1ccc2ccc(=O)oc2c1 (single isomer, unassigned) [Polyanthinin, polyanthinin]
- IC50 at 3 days [4]: 5.9 µg/mL (≈ 13.5 µM)
- IC50 at 3 days [5]: 9.94 µg/mL (≈ 22.7 µM)

Molecule: COc1cc(C=O)ccc1O (single isomer, unassigned) [Vanillin, vanillin]
- IC50 at 3 days [7]: > 20 µg/mL
- IC50 at 3 days [8]: 15.7 µg/mL (≈ 103 µM)
- IC50 at 3 days [9]: > 20 µg/mL
- IC50 at 3 days [10]: > 20 µg/mL
- IC50 at 3 days [11]: 16.4 µg/mL (≈ 108 µM)
- IC50 at 3 days [12]: > 20 µg/mL

Molecule: NC12CC3CC(CC(C3)C1)C2 [Amantadine, reference compound]
- IC50 ([13]; H1N1, MDCK, 72 h): 0.92 ± 0.04 µg/mL (≈ 6.08 µM)
- IC90 ([13]; H1N1, MDCK, 72 h): 1.73 ± 0.11 µg/mL (≈ 11.4 µM)

Molecule: CC(=O)O[C@H](CC/C(C)=C/CC/C(C)=C/COc1ccc2ccc(=O)oc2c1)C(C)(C)O [Compound 2, 10′R-Acetoxy-11′-hydroxyumbelliprenin]
- IC50 at 3 days [1]: > 20 µg/mL
- IC50 at 3 days [2]: > 20 µg/mL
- IC50 at 3 days [3]: > 20 µg/mL
- IC50 [13, 26]: 0.94 ± 0.07 µg/mL (≈ 2.12 µM)
- IC90 [13, 27]: 1.98 ± 0.12 µg/mL (≈ 4.47 µM)
- IC50 at 3 days [4]: 19.8 µg/mL (≈ 44.7 µM)
- IC50 at 3 days [5]: > 20 µg/mL
- IC50 at 3 days [6]: > 20 µg/mL

Molecule: CC(C)=CCC/C(C)=C/C(O)C/C(C)=C/COc1ccc2ccc(=O)oc2c1 (stereo not drawn) [Compound 4, 5′-hydroxyumbelliprenin]
- IC90, influenza A (H1N1) antiviral activity ([13]; MDCK cells, XTT, 3 days): 0.62 ± 0.08 µg/mL (≈ 1.62 µM)
- IC50, influenza A (H1N1) antiviral activity [13, 28]: 0.36 ± 0.03 µg/mL (≈ 0.941 µM)

Molecule: C/C(=C\COc1ccc2ccc(=O)oc2c1)CC/C=C(\C)CCC(O)C(C)(C)O (stereo not drawn) [Compound 5, 10′R-karatavicinol]
- IC50 cytotoxicity Hep 3B [14]: >20 µg/mL
- IC90, influenza A (H1N1) antiviral activity ([13]; MDCK cells, XTT, 3 days): 2.05 ± 0.14 µg/mL (≈ 5.12 µM)
- IC50, influenza A (H1N1) antiviral activity [13, 28]: 0.99 ± 0.07 µg/mL (≈ 2.47 µM)
- IC50 cytotoxicity MDA-MB-231 [15]: >20 µg/mL
- IC50 cytotoxicity Hep G2 [16]: >20 µg/mL
- IC50 cytotoxicity A 549 [17]: 10.97 µg/mL (≈ 27.4 µM)
- IC50 cytotoxicity MCF 7 [18]: 14.27 µg/mL (≈ 35.6 µM)
- IC50 cytotoxicity Ca9-22 [19]: >20 µg/mL

Molecule: CC(=O)OC(CC=C(C)C)/C(C)=C/[C@@H](O)C/C(C)=C/COc1ccc2ccc(=O)oc2c1 (stereo partly drawn) [Compound 6, 8′-acetoxy-5′S-hydroxyumbelliprenin]
- IC50 cytotoxicity Hep 3B [14]: 9.82 µg/mL (≈ 22.3 µM)
- IC90, influenza A (H1N1) antiviral activity ([13]; MDCK cells, XTT, 3 days): 1.56 ± 0.11 µg/mL (≈ 3.54 µM)
- IC50, influenza A (H1N1) antiviral activity [13, 28]: 0.81 ± 0.06 µg/mL (≈ 1.84 µM)
- IC50 cytotoxicity MDA-MB-231 [15]: >20 µg/mL
- IC50 cytotoxicity Hep G2 [16]: 15.59 µg/mL (≈ 35.4 µM)
- IC50 cytotoxicity A 549 [17]: >20 µg/mL
- IC50 cytotoxicity MCF 7 [18]: >20 µg/mL
- IC50 cytotoxicity Ca9-22 [19]: 14.23 µg/mL (≈ 32.3 µM)

Molecule: COC(=O)CC[C@H]1C(=C(C)C)CC[C@H](C)[C@]1(C)COc1ccc2ccc(=O)oc2c1 [Compound 7, methyl galbanate]
- IC50 [13, 26]: 0.26 ± 0.03 µg/mL (≈ 0.63 µM)
- IC90 [13, 27]: 0.44 ± 0.05 µg/mL (≈ 1.07 µM)
- IC50 at 3 days [4]: 4.33 µg/mL (≈ 10.5 µM)
- IC50 at 3 days [5]: > 20 µg/mL

Molecule: CC(C)=C1CC[C@H](C)[C@](C)(COc2ccc3ccc(=O)oc3c2)[C@H]1CCC(=O)O [Compound 8, galbanic acid]
- IC50 [13, 26]: 0.45 ± 0.04 µg/mL (≈ 1.13 µM)
- IC90 [13, 27]: 0.88 ± 0.07 µg/mL (≈ 2.21 µM)

Molecule: C/C(=C\COc1ccc2ccc(=O)oc2c1)CC[C@@H]1C(C)(C)[C@H]2CC[C@]1(C)O2 [Compound 9, farnesiferol C]
- IC90, influenza A (H1N1) antiviral activity ([13]; MDCK cells, XTT, 3 days): 0.50 ± 0.07 µg/mL (≈ 1.31 µM)
- IC50, influenza A (H1N1) antiviral activity [13, 28]: 0.29 ± 0.02 µg/mL (≈ 0.758 µM)

Molecule: C=C1CC[C@@H]2C(C)(C)[C@H](O)CC[C@@]2(C)[C@H]1COc1ccc2ccc(=O)oc2c1 [Compound 10, farnesiferol A]
- IC50 cytotoxicity Hep 3B [14]: 7.66 µg/mL (≈ 20 µM)
- IC90, influenza A (H1N1) antiviral activity ([13]; MDCK cells, XTT, 3 days): 0.64 ± 0.07 µg/mL (≈ 1.67 µM)
- IC50, influenza A (H1N1) antiviral activity [13, 28]: 0.51 ± 0.04 µg/mL (≈ 1.33 µM)
- IC50 cytotoxicity MDA-MB-231 [15]: 19.00 µg/mL (≈ 49.7 µM)
- IC50 cytotoxicity Hep G2 [16]: 14.89 µg/mL (≈ 38.9 µM)
- IC50 cytotoxicity A 549 [17]: 15.79 µg/mL (≈ 41.3 µM)
- IC50 cytotoxicity MCF 7 [18]: 15.57 µg/mL (≈ 40.7 µM)
- IC50 cytotoxicity Ca9-22 [20]: 12.07 µg/mL (≈ 31.6 µM)

Molecule: CC1=CC[C@@H]2C(C)(C)[C@@H](O)CC[C@@]2(C)[C@@H]1COc1ccc2ccc(=O)oc2c1 [Compound 11, conferol]
- IC50 cytotoxicity Hep 3B ([14]; human, 3 days): 2.63 µg/mL (≈ 6.88 µM)
- IC50 [13, 26]: 0.47 ± 0.05 µg/mL (≈ 1.23 µM)
- IC90 [13, 27]: 0.83 ± 0.09 µg/mL (≈ 2.17 µM)
- IC50 at 3 days [4]: 2.6 µg/mL (≈ 6.8 µM)
- IC50 at 3 days [5]: 3.4 µg/mL (≈ 8.89 µM)
- IC50 cytotoxicity MCF 7 ([18]; human, 3 days): 3.38 µg/mL (≈ 8.84 µM)

Molecule: CC1=CC(=O)[C@@H]2C(C)(C)[C@H](O)CC[C@@]2(C)[C@@H]1COc1ccc2ccc(=O)oc2c1 [Compound 12, ligupersin A]
- IC90, influenza A (H1N1) antiviral activity ([13]; MDCK cells, XTT, 3 days): 1.75 ± 0.12 µg/mL (≈ 4.41 µM)
- IC50, influenza A (H1N1) antiviral activity [13, 28]: 0.86 ± 0.08 µg/mL (≈ 2.17 µM)

Molecule: CC1=CC(=O)[C@@H]2C(C)(C)C(=O)CC[C@@]2(C)[C@@H]1COc1ccc2ccc(=O)oc2c1 [Compound 13, epi-conferdione]
- IC90, influenza A (H1N1) antiviral activity ([13]; MDCK cells, XTT, 3 days): 0.37 ± 0.03 µg/mL (≈ 0.938 µM)
- IC50, influenza A (H1N1) antiviral activity [13, 28]: 0.32 ± 0.02 µg/mL (≈ 0.811 µM)

Molecule: COc1cccc2c1C(=O)c1c(O)c3c(c(O)c1C2=O)C[C@@](O)(C(=O)CO)C[C@@H]3O[C@H]1C[C@H](N)[C@H](O)[C@H](C)O1 [Doxorubicin, reference compound]
- IC50 at 3 days [9]: 0.16 µg/mL (≈ 0.294 µM)
- IC50 at 3 days [10]: 0.41 µg/mL (≈ 0.754 µM)
- IC50 at 3 days [11]: 0.35 µg/mL (≈ 0.644 µM)
- IC50 at 3 days [12]: 0.14 µg/mL (≈ 0.258 µM)

Molecule: foetisulfide C
- IC50 cytotoxicity MDA-MB-231 [21]: >20 µg/mL
- IC50 cytotoxicity MCF 7 [22]: >20 µg/mL
- IC50 cytotoxicity Hep G2 [23]: >20 µg/mL
- IC50 cytotoxicity Hep 3B [24]: 19.21 µg/mL
- IC50 cytotoxicity A 549 [25]: 9.14 µg/mL
- IC50 cytotoxicity Ca9-22 [20]: 16.48 µg/mL

Reference: patent US8993618B2, “Composition for treating influenza A (H1N1) virus and a preparation method therefor” (priority 2010, dated 2015)
